How the values were obtained:
Type in all cases: physicochemical
[1] = Solubility to propylene glycol monomethyl ether acetate; details: propylene glycol monomethyl ether acetate at 25° C., 1%-by-mass increments
Experimental: (§1) The sulfonic acid derivative compound of Compound No. 4 and Comparative Compound 1 represented by the formula below were each dissolved in acetonitrile, and their absorption spectra were measured using a solar photometer U-3010 to determine the values of λmax and α (molar extinction coefficient) for absorption in a range of 300 nm to 400 nm as well as the value of E at 365 nm. In addition, their solubility to propylene glycol monomethyl ether acetate at 25° C. was evaluated. As for the solubility, the concentration of each compound was increased by 1%-by-mass increments, and the concentration at which no compound was left undissolved was determined to indicate the solubility in terms of this concentration.

Transmittance at 365 nm = details: in acetonitrile
Experimental: The sulfonic acid derivative compound of Compound No. 4 and Comparative Compound 2 represented by the formula below were each dissolved in acetonitrile, and their absorption spectra were measured using a solar photometer U-3010 to determine the transmittance at 365 nm.

[2] = Acid generation rate (photodegradation rate by HPLC after 365 nm UV irradiation); details: 365 nm UV 100 mW/cm^2, 1.5×10^−4 mol/L in acetonitrile/water=9/1
Experimental: For each of the sulfonic acid derivative compound of Compound No. 4 and Comparative Compound 1, a 1.5×10^−4 mol/L acetonitrile/water mixed solution (volume ratio: acetonitrile/water=9/1) was prepared, and exactly 5.0 mL of the mixed solution was placed in a Petri dish having an inner diameter of 42 mm. Using a UV lamp and a cut filter transmitting only light having a wavelength of about 365 nm, which are manufactured by Hoya Candeo Optronics Corporation, the mixed solution was irradiated with UV having an intensity of 100 mW/cm^2. The irradiation was performed for 0.5 seconds, 1 second and 3 seconds for each solution. After this exposure, the photodegradation rate (%) was determined by HPLC as the acid generation rate.

[3] = UV absorption spectrum in acetonitrile; details: for Maximum absorption wavelength (nm): absorption in a range of 300 nm to 400 nm; for Molar extinction coefficient ϵ (at maximum absorption wavelength): at λmax in 300 nm to 400 nm
Experimental: as §1

CCCCc1cc2c3c(cccc3c1)C(=O)N(OS(=O)(=O)C(F)(F)F)C2=O [Compound No. 4]
Solubility (% by mass) [1]: 20 % by mass | Transmittance at 365 nm (%) (Transmittance at 365 nm): 34.1% | Photodegradation rate (%) ([2]; 0.5 seconds): 62.0% | Photodegradation rate (%) ([2]; 1 second): 86.7% | Photodegradation rate (%) ([2]; 3 seconds): 100% | Molar extinction coefficient, ϵ, at 365 nm [3]: 5.40 × 10^3 | Maximum absorption wavelength (nm) [3]: 339.5 nm | Molar extinction coefficient ϵ (at maximum absorption wavelength) [3]: 1.31 × 10^4

CCCCc1ccc2c3c(cccc13)C(=O)N(OS(=O)(=O)C(F)(F)F)C2=O [Comparative Compound 2]
Transmittance at 365 nm (%) (Transmittance at 365 nm): 1.1%

O=C1c2cccc3cccc(c23)C(=O)N1OS(=O)(=O)C(F)(F)F [Comparative Compound 1]
Solubility (% by mass) [1]: 1.9 % by mass | Photodegradation rate (%) ([2]; 0.5 seconds): 21.4% | Photodegradation rate (%) ([2]; 1 second): 36.9% | Photodegradation rate (%) ([2]; 3 seconds): 68.4% | Molar extinction coefficient, ϵ, at 365 nm [3]: 0.7 × 10^3 | Maximum absorption wavelength (nm) [3]: 336.0 nm | Molar extinction coefficient ϵ (at maximum absorption wavelength) [3]: 1.42 × 10^4

— US20180079724A1, “SULFONIC ACID DERIVATIVE COMPOUND, PHOTOACID GENERATOR, RESIST COMPOSITION, CATIONIC POLYMERIZATION INITIATOR, AND CATIONICALLY POLYMERIZABLE COMPOSITION” (ADEKA CORPORATION, priority 2015, published 2018)
